The target in assay [1] is T1, beta-catenin/TCF4 engagement (Homo sapiens, UniProt P35222).
T1 construct: expressed in transfected cells; host or cells: HEK293
T1 sequence (P35222 1-781): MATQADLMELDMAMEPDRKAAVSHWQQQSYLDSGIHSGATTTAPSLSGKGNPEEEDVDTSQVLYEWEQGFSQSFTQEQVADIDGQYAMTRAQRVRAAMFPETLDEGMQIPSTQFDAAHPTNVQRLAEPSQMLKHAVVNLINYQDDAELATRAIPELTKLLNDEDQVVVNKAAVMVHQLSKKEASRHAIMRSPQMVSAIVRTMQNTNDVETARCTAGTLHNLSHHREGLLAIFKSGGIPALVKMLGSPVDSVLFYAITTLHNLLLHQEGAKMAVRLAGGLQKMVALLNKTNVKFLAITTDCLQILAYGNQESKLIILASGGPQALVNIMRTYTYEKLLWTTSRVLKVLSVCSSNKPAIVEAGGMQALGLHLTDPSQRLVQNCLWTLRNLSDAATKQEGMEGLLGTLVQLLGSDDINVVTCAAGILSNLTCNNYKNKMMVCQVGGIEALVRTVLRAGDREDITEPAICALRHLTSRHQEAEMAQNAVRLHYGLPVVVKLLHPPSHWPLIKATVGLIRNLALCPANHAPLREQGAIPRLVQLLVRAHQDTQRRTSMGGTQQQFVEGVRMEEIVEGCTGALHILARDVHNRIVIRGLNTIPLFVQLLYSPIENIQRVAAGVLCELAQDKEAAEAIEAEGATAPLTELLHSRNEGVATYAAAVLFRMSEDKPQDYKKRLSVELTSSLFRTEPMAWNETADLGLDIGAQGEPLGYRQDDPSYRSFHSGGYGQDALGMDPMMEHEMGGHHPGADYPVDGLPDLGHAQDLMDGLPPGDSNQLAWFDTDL
Briefly: Nano-BRET target engagement assay (B-cat-Halo & TCF4-Luc in HEK293 cells). Conditions: read-out: NanoBRET Abs IC50. Type of assay: cell-based. A general note: BRET reads energy transfer from a luciferase to a nearby fluorophore.

Assay [2] addresses T2, full-length beta-Catenin (Uniprot ID P35222) (Homo sapiens, UniProt P35222).
T2 construct: 10 nM full-length beta-Catenin (Uniprot ID P35222)
T2 sequence (P35222 1-781): T1 sequence (P35222 1-781)
Nature of the assay: Fluorescence polarization IC50 (beta-catenin / 5FAM-TCF4 10-53 competition). Type of assay: binding. Conditions: fluorescence polarization; read-out: beta-Catenin FP IC50.

Like-named read-outs stand apart in the source and are kept apart here.

A word on the IC50: it is the concentration that gives 50% inhibition. Turning to `CC[C@@H]1NC(=O)[C@H](Cc2ccccc2)NC(=O)[C@H](C)NC(=O)C(C)(C)NC(=O)[C@H](Cc2cccc(C(=O)O)c2)NC(=O)[C@H](CC(=O)O)NC(=O)C2(CCCC=CCCCOC(=O)N3CC[C@@](C(=O)N[C@@H](Cc4ccsc4)C(=O)N[C@@H](Cc4csc5ccccc45)C(=O)N[C@@H](CCC(=O)N4CCOCC4)C(N)=O)(C3)NC1=O)CCCC=CC[C@]1(CCCN1C(C)=O)C(=O)N[C@@H](CC(=O)O)C(=O)N[C@@H](CC(C)(C)C)C(=O)N2` (stereo partly drawn) [I-2558, Ac-PL3-Asp-Npg-B5-Asp-3COOHF-Aib-Ala-Phe-Abu-PyrS2-3Thi-BztA-[Morph]GlnR-NH2], the IC50 was 14700 nM in assay [1] (absolute IC50) and 7 nM in assay [2].
Take `CC[C@@H]1NC(=O)[C@H](Cc2ccccc2)NC(=O)[C@H](C)NC(=O)C(C)(C)NC(=O)[C@H](Cc2cccc(C(=O)O)c2)NC(=O)[C@H](CC(=O)O)NC(=O)C2(CCCC=CCCCOC(=O)N3CC[C@@](C(=O)N[C@@H](Cc4ccsc4)C(=O)N[C@@H](Cc4csc5ccccc45)C(=O)N[C@@H](CCC(=O)N(CCOC)CCOC)C(N)=O)(C3)NC1=O)CCCC=CC[C@]1(CCCN1C(C)=O)C(=O)N[C@@H](CC(=O)O)C(=O)N[C@@H](CC(C)(C)C)C(=O)N2` (stereo partly drawn) [I-2559, Ac-PL3-Asp-Npg-B5-Asp-3COOHF-Aib-Ala-Phe-Abu-PyrS2-3Thi-BztA-[bismethoxyethylamine]GlnR-NH2]: the concentration for half-maximal inhibition (IC50) in assay [1] (absolute IC50) was determined as 3800 nM; in assay [2] it was 8 nM.
For `CC[C@@H]1NC(=O)[C@H](Cc2ccccc2)NC(=O)[C@H](C)NC(=O)C(C)(C)NC(=O)[C@H](Cc2cccc(C(=O)O)c2)NC(=O)[C@H](CC(=O)O)NC(=O)C2(CCCC=CCCCOC(=O)N3CC[C@@](C(=O)N[C@@H](Cc4ccsc4)C(=O)N[C@@H](Cc4csc5ccccc45)C(=O)N[C@@H](CCC(=O)N4CCC(N5CCCCC5)CC4)C(N)=O)(C3)NC1=O)CCCC=CC[C@]1(CCCN1C(C)=O)C(=O)N[C@@H](CC(=O)O)C(=O)N[C@@H](CC(C)(C)C)C(=O)N2` (stereo partly drawn) [I-2560, Ac-PL3-Asp-Npg-B5-Asp-3COOHF-Aib-Ala-Phe-Abu-PyrS2-3Thi-BztA-[4Pippip]GlnR-NH2], the 50% inhibitory concentration (IC50) in assay [1] (absolute IC50) stood at 19300 nM; in assay [2] it was 9 nM.
As for `CC[C@@H]1NC(=O)[C@H](Cc2ccccc2)NC(=O)[C@H](C)NC(=O)C(C)(C)NC(=O)[C@H](Cc2cccc(C(=O)O)c2)NC(=O)[C@H](CC(=O)O)NC(=O)C2(CCCC=CCCCOC(=O)N3CC[C@@](C(=O)N[C@@H](Cc4ccsc4)C(=O)N[C@@H](Cc4csc5ccccc45)C(=O)N[C@@H](CCC(=O)N4CCN(C(C)=O)CC4)C(N)=O)(C3)NC1=O)CCCC=CC[C@]1(CCCN1C(C)=O)C(=O)N[C@@H](CC(=O)O)C(=O)N[C@@H](CC(C)(C)C)C(=O)N2` (stereo partly drawn) [I-2561, Ac-PL3-Asp-Npg-B5-Asp-3COOHF-Aib-Ala-Phe-Abu-PyrS2-3Thi-BztA-[AcPpz]GlnR-NH2], the half-inhibitory concentration (IC50) in assay [1] (absolute IC50) came out at 7200 nM; in assay [2] it was 5 nM.
For `CC(=O)N[C@]1(C)CC=CCCCC2(CCCC=CCCCOC(=O)N3CC[C@@](C(=O)N[C@@H](Cc4ccccc4C(F)(F)F)C(=O)N[C@@H](Cc4csc5ccccc45)C(=O)N[C@@H](CCC(N)=O)C(N)=O)(C3)NC(=O)[C@H](CC(C)C)NC(=O)[C@H](Cc3ccccc3)NC(=O)[C@H](C)NC(=O)[C@H](C)NC(=O)[C@H](Cc3cccc(C(=O)O)c3)NC(=O)[C@H](CC(=O)O)NC2=O)NC(=O)[C@H](CC(C)(C)C)NC(=O)[C@H](CC(=O)O)NC1=O` (stereo partly drawn) [I-2563, Ac-R3-Asp-Npg-B5-Asp-3COOHF-Ala-Ala-Phe-Leu-PyrS2-2F3MeF-BztA-Gln-NH2] the same measures were 17000 nM and 48 nM.
On to `CC(=O)N[C@]1(C)CCCC=CCCCC2(CCCC=CCCCOC(=O)N3CC[C@@](C(=O)N[C@@H](Cc4ccccc4C(F)(F)F)C(=O)N[C@@H](Cc4csc5ccccc45)C(=O)N[C@@H](CCC(N)=O)C(N)=O)(C3)NC(=O)[C@H](CC(C)C)NC(=O)[C@H](Cc3ccccc3)NC(=O)[C@H](C)NC(=O)[C@H](C)NC(=O)[C@H](Cc3cccc(C(=O)O)c3)NC(=O)[C@H](CC(=O)O)NC2=O)NC(=O)[C@H](CC(C)(C)C)NC(=O)[C@H](CC(=O)O)NC1=O` (stereo partly drawn) [I-2565, Ac-R5-Asp-Npg-B5-Asp-3COOHF-Ala-Ala-Phe-Leu-PyrS2-2F3MeF-BztA-Gln-NH2], for which the IC50 in assay [1] stood at 21000 nM; in assay [2], 90 nM.
With `CC(=O)N[C@]1(C)CCCCCCCCC2(CCCCCCCCOC(=O)N3CC[C@@](C(=O)N[C@@H](Cc4ccccc4C(F)(F)F)C(=O)N[C@@H](Cc4csc5ccccc45)C(=O)N[C@@H](CCC(N)=O)C(N)=O)(C3)NC(=O)[C@H](CC(C)C)NC(=O)[C@H](Cc3ccccc3)NC(=O)[C@H](C)NC(=O)[C@H](C)NC(=O)[C@H](Cc3cccc(C(=O)O)c3)NC(=O)[C@H](CC(=O)O)NC2=O)NC(=O)[C@H](CC(C)(C)C)NC(=O)[C@H](CC(=O)O)NC1=O` (stereo partly drawn) [I-2571, Ac-R5-Asp-Npg-B5-Asp-3COOHF-Ala-Ala-Phe-Leu-PyrS2-2F3MeF-BztA-Gln-NH2], the IC50 is 24000 nM in assay [1] and 42 nM in assay [2].
Take `CC(=O)N1CCC[C@H]1C(=O)N[C@]1(C)CCCCCCC2(CCCCCCCCOC(=O)N3CC[C@@](C(=O)N[C@@H](Cc4ccccc4C(F)(F)F)C(=O)N[C@@H](Cc4csc5ccccc45)C(=O)N[C@@H](CCC(N)=O)C(N)=O)(C3)NC(=O)[C@H](CC(C)C)NC(=O)[C@H](Cc3ccccc3)NC(=O)[C@H](C)NC(=O)[C@H](C)NC(=O)[C@H](Cc3cccc(C(=O)O)c3)NC(=O)[C@H](CC(=O)O)NC2=O)NC(=O)[C@H](CC(C)(C)C)NC(=O)[C@H](CC(=O)O)NC1=O` (stereo partly drawn) [I-2572, Ac-Pro-R3-Asp-Npg-B5-Asp-3COOHF-Ala-Ala-Phe-Leu-PyrS2-2F3MeF-BztA-Gln-NH2]: the IC50 in assay [1] was more than 20000 nM; in assay [2], 67 nM.
On to `CC(=O)N1CCC[C@]12CC=CCCCC1(CCCC=CCCCOC(=O)N3CCC(C(=O)N[C@@H](Cc4ccccc4C(F)(F)F)C(=O)N[C@@H](Cc4csc5ccccc45)C(=O)N[C@@H](CCC(N)=O)C(N)=O)(CC3)NC(=O)[C@H](CC(C)C)NC(=O)[C@H](Cc3ccccc3)NC(=O)[C@H](C)NC(=O)[C@H](C)NC(=O)[C@H](Cc3cccc(C(=O)O)c3)NC(=O)[C@H](CC(=O)O)NC1=O)NC(=O)[C@H](CC(C)(C)C)NC(=O)[C@H](CC(=O)O)NC2=O` (stereo partly drawn) [I-2581, Ac-PL3-Asp-Npg-B5-Asp-3COOHF-Ala-Ala-Phe-Leu-SPip2-2F3MeF-BztA-Gln-NH2], for which the figures for the IC50 in assay [1] and in assay [2] were more than 20000 nM and 205 nM, respectively.
As for `CC(=O)N1CCC[C@]12CC=CCCCC1(CCCC=CCCCOC(=O)N3CCC(C(=O)N[C@@H](Cc4ccccc4C(F)(F)F)C(=O)N[C@@H](Cc4csc5ccccc45)C(=O)N[C@@H](CCC(N)=O)C(N)=O)(CC3)NC(=O)[C@H](CC(C)C)NC(=O)[C@H](Cc3ccccc3)NC(=O)[C@H](C)NC(=O)[C@H](C)NC(=O)[C@H](Cc3cccc(C(=O)O)c3)NC(=O)[C@H](CC(=O)O)NC1=O)NC(=O)[C@H](CC(C)(C)C)NC(=O)[C@H](CC(=O)O)NC2=O` (stereo partly drawn) [I-2582, Ac-PL3-Asp-Npg-B5-Asp-3COOHF-Ala-Ala-Phe-Leu-SPip2-2F3MeF-BztA-Gln-NH2], the 50% inhibitory concentration (IC50) in assay [1] was more than 20000 nM; in assay [2], 263 nM.

The values above are taken from patent US20240116985A1, “STAPLED PEPTIDES AND METHODS THEREOF” (priority 2020, published 2024).
